The values below come from ChEMBL document CHEMBL5236583, “Semisynthesis, biological activities, and mechanism studies of Mannich base analogues of magnolol/honokiol as potential α-glucosidase inhibitors” (Bioorg Med Chem, 2022).

Each structure is given as a SMILES string. Activity calls are given as the source filed them. No cut-off for these calls is given here.

Data set [1] concerns the target Maltase-glucoamylase (Homo sapiens) (UniProt O43451). Description: Inhibition of alpha-glucosidase (unknown origin) using pNPG as substrate at 64 uM preincubated with enzyme for 15 mins followed by substrate addition and measured after 10 mins by microplate reader analysis. The settings on record: time 25.0 min.
The nature of data set [2]: Cytotoxicity against human L02 cells assessed as cell viability at 64 uM by CCK8 assay. The class given is toxicity, cell-based. The conditions noted are these: read-out: Activity. (In general: Tetrazolium assays rely on reduction of a dye to a coloured formazan, in cell work by metabolically active cells.)
The target of data set [3] is Maltase-glucoamylase (Homo sapiens) (UniProt O43451). Put plainly: Competitive inhibition of alpha-glucosidase (unknown origin) using pNPG as substrate preincubated with enzyme for 15 mins followed by substrate addition and measured for 15 mins by Lineweaver-Burk plot analysis. The settings on record: time 30.0 min.
Chain of Maltase-glucoamylase (Homo sapiens) (O43451 whole entry, looked up): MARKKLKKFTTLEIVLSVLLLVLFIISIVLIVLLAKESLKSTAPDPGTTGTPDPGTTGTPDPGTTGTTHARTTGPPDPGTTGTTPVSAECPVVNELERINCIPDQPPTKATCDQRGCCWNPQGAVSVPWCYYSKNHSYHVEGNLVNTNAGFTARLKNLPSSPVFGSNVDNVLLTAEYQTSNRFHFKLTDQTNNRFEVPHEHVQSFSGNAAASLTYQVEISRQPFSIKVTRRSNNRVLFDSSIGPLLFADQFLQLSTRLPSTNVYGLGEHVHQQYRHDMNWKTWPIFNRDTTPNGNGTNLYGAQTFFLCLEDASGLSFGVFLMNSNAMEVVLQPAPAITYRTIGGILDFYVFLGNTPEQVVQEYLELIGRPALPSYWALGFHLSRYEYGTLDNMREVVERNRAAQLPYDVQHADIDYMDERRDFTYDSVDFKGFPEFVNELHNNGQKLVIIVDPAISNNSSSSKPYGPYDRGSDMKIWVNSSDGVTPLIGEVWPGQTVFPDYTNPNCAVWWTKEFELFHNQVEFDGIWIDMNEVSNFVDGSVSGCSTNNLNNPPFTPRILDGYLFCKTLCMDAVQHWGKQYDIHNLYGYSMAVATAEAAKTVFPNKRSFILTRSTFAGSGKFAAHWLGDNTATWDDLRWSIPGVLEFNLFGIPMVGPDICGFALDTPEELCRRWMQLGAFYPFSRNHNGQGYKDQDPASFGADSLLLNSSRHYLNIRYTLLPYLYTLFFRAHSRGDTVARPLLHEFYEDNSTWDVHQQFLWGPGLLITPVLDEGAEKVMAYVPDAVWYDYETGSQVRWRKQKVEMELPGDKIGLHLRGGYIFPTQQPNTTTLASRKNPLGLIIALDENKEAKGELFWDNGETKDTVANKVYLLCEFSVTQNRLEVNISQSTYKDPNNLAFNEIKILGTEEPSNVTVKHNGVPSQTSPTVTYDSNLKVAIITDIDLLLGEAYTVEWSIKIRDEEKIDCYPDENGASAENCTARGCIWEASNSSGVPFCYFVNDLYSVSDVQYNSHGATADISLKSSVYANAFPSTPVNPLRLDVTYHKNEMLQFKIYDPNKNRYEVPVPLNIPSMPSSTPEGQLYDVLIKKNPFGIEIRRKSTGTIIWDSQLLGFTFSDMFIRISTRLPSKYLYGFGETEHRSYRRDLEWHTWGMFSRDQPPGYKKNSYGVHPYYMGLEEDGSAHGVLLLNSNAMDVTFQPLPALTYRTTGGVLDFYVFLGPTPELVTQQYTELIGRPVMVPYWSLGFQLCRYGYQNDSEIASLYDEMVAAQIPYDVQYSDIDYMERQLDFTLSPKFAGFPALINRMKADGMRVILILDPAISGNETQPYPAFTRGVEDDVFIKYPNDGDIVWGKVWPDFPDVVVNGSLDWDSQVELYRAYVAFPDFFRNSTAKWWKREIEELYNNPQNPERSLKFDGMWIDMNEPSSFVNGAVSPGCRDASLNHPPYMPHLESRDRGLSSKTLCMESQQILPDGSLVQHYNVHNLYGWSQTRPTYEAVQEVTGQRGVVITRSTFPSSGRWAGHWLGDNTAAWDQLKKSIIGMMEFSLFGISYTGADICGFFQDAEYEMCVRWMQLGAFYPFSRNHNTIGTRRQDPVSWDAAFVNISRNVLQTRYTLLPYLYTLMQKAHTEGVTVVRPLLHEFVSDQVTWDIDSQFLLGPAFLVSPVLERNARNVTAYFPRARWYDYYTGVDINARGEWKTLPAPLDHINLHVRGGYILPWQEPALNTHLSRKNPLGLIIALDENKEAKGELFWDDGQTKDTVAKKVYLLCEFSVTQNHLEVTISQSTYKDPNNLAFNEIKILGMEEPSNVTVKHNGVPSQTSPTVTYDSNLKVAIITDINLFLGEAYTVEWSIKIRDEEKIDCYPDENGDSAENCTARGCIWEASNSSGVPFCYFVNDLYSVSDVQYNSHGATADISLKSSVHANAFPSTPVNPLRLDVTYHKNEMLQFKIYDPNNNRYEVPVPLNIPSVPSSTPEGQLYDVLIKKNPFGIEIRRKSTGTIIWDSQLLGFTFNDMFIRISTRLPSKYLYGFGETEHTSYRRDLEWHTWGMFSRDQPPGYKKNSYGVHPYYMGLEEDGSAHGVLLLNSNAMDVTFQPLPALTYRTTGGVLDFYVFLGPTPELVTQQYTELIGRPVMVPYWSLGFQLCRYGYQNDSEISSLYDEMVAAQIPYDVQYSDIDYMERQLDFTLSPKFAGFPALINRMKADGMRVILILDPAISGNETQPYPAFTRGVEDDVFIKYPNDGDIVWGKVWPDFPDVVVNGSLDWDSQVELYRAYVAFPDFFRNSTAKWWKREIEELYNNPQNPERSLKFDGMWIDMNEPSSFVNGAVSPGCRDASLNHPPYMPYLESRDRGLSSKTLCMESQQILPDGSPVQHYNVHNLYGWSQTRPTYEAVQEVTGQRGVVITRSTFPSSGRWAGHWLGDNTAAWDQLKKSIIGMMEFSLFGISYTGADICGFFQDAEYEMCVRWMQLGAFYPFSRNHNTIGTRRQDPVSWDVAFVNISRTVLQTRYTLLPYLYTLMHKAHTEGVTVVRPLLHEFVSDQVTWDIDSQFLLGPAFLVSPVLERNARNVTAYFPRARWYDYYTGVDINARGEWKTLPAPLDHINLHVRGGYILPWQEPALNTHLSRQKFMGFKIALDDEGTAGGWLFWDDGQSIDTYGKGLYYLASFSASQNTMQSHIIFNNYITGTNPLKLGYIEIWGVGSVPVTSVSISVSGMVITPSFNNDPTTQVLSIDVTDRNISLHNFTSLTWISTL
For data set [4] the target is unchanged. Put plainly: Reversible inhibition of alpha-glucosidase (unknown origin) using pNPG as substrate assessed as reduction in velocity of enzyme-catalyzed reaction.
Data set [5] has the same target. Description: Non-competitive inhibition of alpha-glucosidase (unknown origin) using pNPG as substrate preincubated with enzyme for 15 mins followed by substrate addition and measured for 15 mins by Lineweaver-Burk plot analysis. The conditions noted are these: time 30.0 min.

By inhibition is commonly meant how much of the control response was suppressed. For `C=CCc1cc(-c2ccc(O)c(CC=C)c2)c(O)c(C(c2cc(OC)c(OC)c(OC)c2)N2CCCC2)c1` (stereo not drawn), the inhibition in data set [1] worked out at 43%.

For `C=CCc1ccc(O)c(-c2cc(CC=C)cc(CN3CCN(C)CC3)c2O)c1`, in data set [1], the inhibition was 9.4%.

The compound `C=CCc1ccc(O)c(-c2cc(CC=C)cc(CN(C)c3ccccc3)c2O)c1` had an inhibition in data set [1] of 15.5%.

As for `C=CCc1cc(-c2ccc(O)c(CC=C)c2)c(O)c(C(c2cc(Cl)cc(Cl)c2)N2CCCCC2)c1` (stereo not drawn), in data set [1], the inhibition was found to be 87.7%. For the same compound, the viability at 64 µM in data set [2] is above 80%.

Compound `C=CCc1cc(-c2ccc(O)c(CC=C)c2)c(O)c(C(c2ccc(Cl)cc2)N2CCCCC2)c1` (stereo not drawn) yielded an inhibition in data set [1] of 45%.

`C=CCc1cc(-c2cc(CC=C)c(O)c(C(c3ccc(OC)cc3)N3CCC(C)CC3)c2)c(O)c(C(c2ccc(OC)cc2)N2CCC(C)CC2)c1` (stereo not drawn) registered an inhibition in data set [1] of 27.8%.

For `C=CCc1cc(-c2ccc(O)c(CC=C)c2)c(O)c(C(c2ccccc2)N2CCC(C)CC2)c1` (stereo not drawn), the inhibition in data set [1] stood at 25.8%.

Regarding `C=CCc1ccc(O)c(-c2cc(CC=C)ccc2O)c1`, the inhibition in data set [1] was 9.6%.

`C=CCc1cc(-c2ccc(O)c(CC=C)c2)c(O)c(C(c2ccccc2)N2CCCCC2)c1` (stereo not drawn) gave an inhibition in data set [1] of 13.6%.

The compound `C=CCc1cc(-c2cc(CC=C)c(O)c(C(c3ccc(Cl)cc3)N3CCOCC3)c2)c(O)c(C(c2ccc(Cl)cc2)N2CCOCC2)c1` (stereo not drawn) showed an inhibition in data set [1] of 80.1%. For the same compound, the viability at 64 µM in data set [2] was above 80%.

`C=CCc1ccc(O)c(-c2cc(CC=C)cc(CN(C)C(C)C)c2O)c1` came in with an inhibition in data set [1] of 3.4%.

`C=CCc1ccc(O)c(-c2cc(CC=C)cc(CN3CCC(C)CC3)c2O)c1` displayed an inhibition in data set [1] of 6.3%.

For the compound `C=CCc1cc(CN2CCCC2)c(O)c(-c2cc(CC=C)c(O)c(CN3CCCC3)c2)c1`, the inhibition in data set [1] amounted to 4.7%.

Regarding `C=CCc1cc(-c2ccc(O)c(CC=C)c2)c(O)c(C(c2ccc(Cl)cc2)N2CCCC2)c1` (stereo not drawn), in data set [1], the inhibition came out at 40.6%.

For the compound `C[C@H]1O[C@H](O[C@H]2[C@H](O)[C@@H](O)[C@@H](O[C@H]3[C@H](O)[C@@H](O)C(O)O[C@@H]3CO)O[C@@H]2CO)[C@H](O)[C@@H](O)[C@@H]1N[C@H]1C=C(CO)[C@@H](O)[C@H](O)[C@H]1O` (stereo partly drawn), the inhibition in data set [1] was 99%. Moreover, in data set [3], the inhibition result was “Active”.

For the compound `C=CCc1cc(CN(CCC)CCC)c(O)c(-c2cc(CC=C)c(O)c(CN(CCC)CCC)c2)c1`, the inhibition in data set [1] was found to be 4.8%.

As for `C=CCc1cc(-c2ccc(O)c(CC=C)c2)c(O)c(C(c2cc(Cl)cc(Cl)c2)N2CCOCC2)c1` (stereo not drawn), in data set [1], the inhibition turned out to be 92.6%. Also, the inhibition result in data set [4] and in data set [5] was “Active” each time. Also, the viability at 64 µM in data set [2] is above 80%.

`C=CCc1cc(-c2ccc(O)c(CC=C)c2)c(O)c(C(c2ccc(Cl)cc2)N2CCC(C)CC2)c1` (stereo not drawn) had an inhibition in data set [1] of 8.6%.

Take `C=CCc1cc(CN(CCCC)CCCC)c(O)c(-c2cc(CC=C)c(O)c(CN(CCCC)CCCC)c2)c1`: the inhibition in data set [1] worked out at 4.7%.

For `C=CCc1cc(CN(C(C)C)C(C)C)c(O)c(-c2cc(CC=C)c(O)c(CN(C(C)C)C(C)C)c2)c1`, in data set [1], the inhibition turned out to be 7.2%.

With `C=CCc1cc(-c2ccc(O)c(CC=C)c2)c(O)c(C(c2ccc(OC)cc2)N2CCOCC2)c1` (stereo not drawn), in data set [1], the inhibition was determined as 6.2%.

As to `C=CCc1ccc(O)c(-c2ccc(O)c(CC=C)c2)c1`, the inhibition in data set [1] came to 30.6%.

With `C=CCc1ccc(O)c(-c2cc(CC=C)cc(CN(CC(C)C)CC(C)C)c2O)c1`, the inhibition in data set [1] was found to be 3.8%.

Compound `C=CCc1ccc(O)c(-c2cc(CC=C)cc(CN(CCCC)CCCC)c2O)c1` came in with an inhibition in data set [1] of 8.2%.

Compound `C=CCc1cc(CN2CCC(C)CC2)c(O)c(-c2cc(CC=C)c(O)c(CN3CCC(C)CC3)c2)c1` returned an inhibition in data set [1] of 6.5%.

In data set [1], `C=CCc1ccc(O)c(-c2cc(CC=C)cc(CN(CCC)CCC)c2O)c1` registered an inhibition of 6.3%.

For `C=CCc1cc(CN2CCCCC2C)c(O)c(-c2cc(CC=C)c(O)c(CN3CCCCC3C)c2)c1` (stereo not drawn), in data set [1], the inhibition is 3.33%.

The compound `C=CCc1cc(-c2ccc(O)c(CC=C)c2)c(O)c(C(c2cc(OC)c(OC)c(OC)c2)N2CCCCC2)c1` (stereo not drawn) registered an inhibition in data set [1] of 56.4%.

As to `C=CCc1cc(CN(C)C(C)C)c(O)c(-c2cc(CC=C)c(O)c(CN(C)C(C)C)c2)c1`, the inhibition in data set [1] came out at 4.1%.

`C=CCc1cc(CN(C)c2ccccc2)c(O)c(-c2cc(CC=C)c(O)c(CN(C)c3ccccc3)c2)c1`: in data set [1], the inhibition stood at 63%.

In data set [1], `C=CCc1cc(CN(CC(C)C)CC(C)C)c(O)c(-c2cc(CC=C)c(O)c(CN(CC(C)C)CC(C)C)c2)c1` displayed an inhibition of 6.2%.

Compound `C=CCc1cc(-c2ccc(O)c(CC=C)c2)c(O)c(C(c2ccc(OC)cc2)N2CCCCC2)c1` (stereo not drawn) came in with an inhibition in data set [1] of 85%. For the same compound, the viability at 64 µM in data set [2] was above 80%.

In data set [1], `C=CCc1cc(-c2ccc(O)c(CC=C)c2)c(O)c(C(c2cc(Cl)cc(Cl)c2)N2CCC(C)CC2)c1` (stereo not drawn) registered an inhibition of 97.5%. For the same compound, the inhibition result in data set [4] and in data set [5] was “Active” in each case. For the same compound, the viability at 64 µM in data set [2] was above 80%.
